The text below walks through data of PubChem BioAssay (NCI).

Assay in all cases: growth of human tumour cells (NCI), 48 h
Assay [1] concerns COLO 205 colon.
The subject of assay [2] is HCC-2998 colon.
The test system of assay [3] is NCI-H460 lung.
The test system of assay [4] is OVCAR-4 ovarian.
The test system of assay [5] is SNB-19 CNS.
Assay [6] deals with SW-620 colon.
Assay [7] concerns UACC-62 melanoma.
Assay [8] deals with MOLT-4 leukemia.

“And” between values parts separate entries of the source, which are not always exact repeats. Identical values can stand only once.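 Five concentrations, 48 hours, 96-well plates. GI50: concentration for 50% inhibition of growth. TGI: concentration producing complete growth inhibition.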

As to `CCN(CCO)CC1CCCC2CCCCC21` (stereo unspecified), the TGI in assay [1], in assay [2], in assay [3], in assay [4], in assay [5] and in assay [6] was greater than 100 µM in each case. The TGI in assay [7] is greater than 100 µM.
Regarding `O=C(Nc1ccc(Cl)c(Cl)c1)Nc1ccc(Cl)c(Cl)c1`, the GI50 in assay [1] was 1.77 µM and 2.07 µM; in assay [2], 3.71 µM and 3.01 µM; in assay [8], 2.64 µM and 2.31 µM; in assay [3] it was 2.85 µM and 2.24 µM; in assay [4], 2.98 µM and 3.57 µM; in assay [5], 3.03 µM and 3.7 µM. Further, the GI50 is 3.36 µM and 3.12 µM in assay [6]; 2.88 µM and 2.38 µM in assay [7]. Besides, the TGI in assay [1] is 3.3 µM and 3.69 µM; in assay [2], 13.4 µM and 11.5 µM; in assay [8], 10.2 µM and 6.6 µM; in assay [3], 10.6 µM and 8.59 µM; in assay [4], 14.6 µM and 47.7 µM; in assay [5], 15.4 µM and 23 µM. The TGI in assay [6] was 14.4 µM and 11.7 µM; in assay [7], 13.4 µM and 10.4 µM.
Consider `NC(=O)c1cccc2cn(-c3ccc([C@@H]4CCCNC4)cc3)nc12`, for which the GI50 in assay [1] was 13.5 µM; in assay [2], 14.1 µM; in assay [8] it was 6.99 µM; in assay [3] it was 4 µM; in assay [4], 16.6 µM; in assay [5], 17.1 µM. Also, the GI50 in assay [6] was 10.4 µM; in assay [7], 13.6 µM. For the same compound, the TGI was 28.6 µM in assay [1]; 34.3 µM in assay [2]; 30.1 µM in assay [8]; 18.7 µM in assay [3]; 41.5 µM in assay [4]; greater than 92.7 µM in assay [5]. Further, the TGI in assay [6] is 51.3 µM; in assay [7] it was 27 µM.
With `CC12CCC(O)CC1CCC1C2CCC2(C)C(C3=CC(=O)OC3)CCC12O` (stereo unspecified), the TGI is 12.2 µM in assay [1]; 10.2 µM in assay [2]; greater than 100 µM in assay [8]; 3.99 µM in assay [3]; 5.39 µM in assay [4]; 12.8 µM in assay [5]. Moreover, the TGI in assay [6] is greater than 36.8 µM; in assay [7] it was 12.8 µM.
Regarding `O=C(O)CSc1ccc([N+](=O)[O-])cc1[N+](=O)[O-]`, the TGI in assay [2], in assay [3], in assay [4], in assay [5], in assay [6] and in assay [7] was greater than 100 µM in each case.
In the case of `COc1cc(CNc2cnc3cc(N)cc(N)c3n2)cc(OC)c1`, the GI50 in assay [2] is 11.7 µM; in assay [8] it was 36.9 µM; in assay [3] it was 54.4 µM; in assay [6], 24.6 µM. Also, the TGI in assay [2] is 25 µM; in assay [8], greater than 100 µM; in assay [3] it was greater than 100 µM; in assay [6], 64.2 µM.
In the case of `CCCCOC(=O)C1OC(O[C@H]2CCC3(C)C(CCC4(C)C3CC=C3C5CC(C)(C)CCC5(C(=O)O)CC[C@]34C)C2(C)C)C(OC2OC(CO)C(O)C(O)C2O)C(OC2OC(CO)C(O)C(O)C2O)C1O` (stereo partly specified), the GI50 in assay [1] was 20.1 µM; in assay [2] it was 21.8 µM; in assay [8], 7.77 µM; in assay [3], 33.3 µM; in assay [5] it was 22.5 µM; in assay [6], 36.6 µM. Besides, in assay [7], the GI50 was 20.9 µM. In addition, the TGI in assay [1] was 52.3 µM; in assay [2], 38.1 µM; in assay [8], 36.4 µM; in assay [3], greater than 100 µM; in assay [5], 53.6 µM; in assay [6], greater than 100 µM. In assay [7], the TGI amounted to 36.1 µM.
On to `CC1=C(C(=O)Nc2ccc(Cl)c(Cl)c2)C(c2cccc(Oc3ccccc3)c2)NC(=S)N1` (stereo unspecified), for which the GI50 was 9.38 µM in assay [1]; greater than 50 µM in assay [8]; 7.57 µM in assay [3]; 7.56 µM in assay [4]; 7.07 µM in assay [5]; 8.23 µM in assay [6]. Moreover, in assay [7], the GI50 was 7.81 µM. Moreover, the TGI was 21.1 µM in assay [1]; greater than 50 µM in assay [8]; 14.4 µM in assay [3]; 16.5 µM in assay [4]; 14.1 µM in assay [5]; 15 µM in assay [6]. For the same compound, the TGI in assay [7] turned out to be 14.6 µM.
On to `COc1cc(Cc2cnc(/N=C3\C(=O)N(CN4CCN(c5c(F)cc6c(=O)c(C(=O)O)cn(C7CC7)c6c5OC)CC4C)c4ccc(F)cc43)nc2N)cc(OC)c1OC` (stereo unspecified), for which the GI50 is 15 µM in assay [1]; 12.6 µM in assay [2]; 1.16 µM in assay [8]; 18.9 µM in assay [3]; 17.7 µM in assay [5]; 5.28 µM in assay [6]. The GI50 in assay [7] was 12.6 µM. The TGI in assay [1] is 58.8 µM; in assay [2] it was 26.1 µM; in assay [8], 6.97 µM; in assay [3] it was greater than 100 µM; in assay [5], 51.3 µM; in assay [6], 23.3 µM. Besides, the TGI in assay [7] came to 26 µM.
Take `CCCCCN(CCCCC)CCCNc1c2c(nc3ccc(Cl)cc13)CCCC2`: the GI50 was 1.28 µM in assay [1]; 2.48 µM in assay [2]; 2.28 µM in assay [3]; 2.05 µM in assay [4]; 4.96 µM in assay [5]; 1.97 µM in assay [6]. Moreover, the GI50 in assay [7] was 4.36 µM. The TGI is 2.81 µM in assay [1]; 8.89 µM in assay [2]; 6.9 µM in assay [3]; 12 µM in assay [4]; 18.4 µM in assay [5]; 8.55 µM in assay [6]. This compound also came in with a TGI in assay [7] of 16.8 µM.
With `Cc1ccc(NC2=C(Cl)C(=O)N(Cc3ccccc3)C2=O)cc1O`, the GI50 is 49 µM in assay [1]; 24.3 µM in assay [8]; 34 µM in assay [3]; 79.3 µM in assay [4]; 41.2 µM in assay [5]; 39.2 µM in assay [6]. Also, the GI50 in assay [7] was 24.4 µM. Moreover, the TGI in assay [1], in assay [8], in assay [3], in assay [4], in assay [5] and in assay [6] was greater than 100 µM each time. The compound further returned a TGI in assay [7] greater than 100 µM.
